# Test results published in US9693556B2, “Herbicidal pyridazinone derivatives” (SYNGENTA LIMITED, priority 2011, dated 2017).
# What was measured:
# Format in all cases: in vivo
# [1] = system: Alopecurus myosuroides (ALOMY); experiment: Pre-emergence herbicidal glasshouse test on Alopecurus myosuroides; details: pre-emergence, 1000 g/h, evaluated after 13 days; for herbicidal damage, PRE Application ALOMY: five point scale
# Method in brief: (§1)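 Scored on a five-point scale (1 = 0-19% to 5 = 80-100% damage) 13 days after treatment. Application rate 1000 g/h in acetone/water (50:50) containing 0.5% Tween 20, sprayed one day post-sowing for pre-emergence or eight days for post-emergence; glasshouse at 24/16° C, 14 h light, 65% humidity.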
# [2] = system: Setaria faberi (SETFA); experiment: Pre-emergence herbicidal glasshouse test on Setaria faberi; details: pre-emergence, 1000 g/h, evaluated after 13 days; for herbicidal damage, PRE Application SETFA: five point scale
# Method in brief: as §1
# [3] = system: Echinochloa crus-galli (ECHCG); experiment: Pre-emergence herbicidal glasshouse test on Echinochloa crus-galli; details: pre-emergence, 1000 g/h, evaluated after 13 days; for herbicidal damage, PRE Application ECHCG: five point scale
# Method in brief: as §1
# [4] = system: Solanum nigrum (SOLNI); experiment: Pre-emergence herbicidal glasshouse test on Solanum nigrum; details: pre-emergence, 1000 g/h, evaluated after 13 days; for herbicidal damage, PRE Application SOLNI: five point scale
# Method in brief: as §1
# [5] = system: Amaranthus retoflexus (AMARE); experiment: Pre-emergence herbicidal glasshouse test on Amaranthus retoflexus; details: pre-emergence, 1000 g/h, evaluated after 13 days; for herbicidal damage, PRE Application AMARE: five point scale
# Method in brief: as §1
# [6] = system: Ipomoea hederacea (IPOHE); experiment: Pre-emergence herbicidal glasshouse test on Ipomoea hederacea; details: pre-emergence, 1000 g/h, evaluated after 13 days; for herbicidal damage, PRE Application IPOHE: five point scale
# Method in brief: as §1
# [7] = system: Alopecurus myosuroides (ALOMY); experiment: Post-emergence herbicidal glasshouse test on Alopecurus myosuroides; details: post-emergence, 1000 g/h, evaluated after 13 days; for herbicidal damage, POST Application ALOMY: five point scale
# Method in brief: as §1
# [8] = system: Setaria faberi (SETFA); experiment: Post-emergence herbicidal glasshouse test on Setaria faberi; details: post-emergence, 1000 g/h, evaluated after 13 days; for herbicidal damage, POST Application SETFA: five point scale
# Method in brief: as §1
# [9] = system: Echinochloa crus-galli (ECHCG); experiment: Post-emergence herbicidal glasshouse test on Echinochloa crus-galli; details: post-emergence, 1000 g/h, evaluated after 13 days; for herbicidal damage, POST Application ECHCG: five point scale
# Method in brief: as §1
# [10] = system: Solanum nigrum (SOLNI); experiment: Post-emergence herbicidal glasshouse test on Solanum nigrum; details: post-emergence, 1000 g/h, evaluated after 13 days; for herbicidal damage, POST Application SOLNI: five point scale
# Method in brief: as §1
# [11] = system: Amaranthus retoflexus (AMARE); experiment: Post-emergence herbicidal glasshouse test on Amaranthus retoflexus; details: post-emergence, 1000 g/h, evaluated after 13 days; for herbicidal damage, POST Application AMARE: five point scale
# Method in brief: as §1
# [12] = system: Ipomoea hederacea (IPOHE); experiment: Post-emergence herbicidal glasshouse test on Ipomoea hederacea; details: post-emergence, 1000 g/h, evaluated after 13 days; for herbicidal damage, POST Application IPOHE: five point scale
# Method in brief: as §1
SMILES,PRE Application ALOMY herbicidal damage (five point scale) [1],PRE Application SETFA herbicidal damage (five point scale) [2],PRE Application ECHCG herbicidal damage (five point scale) [3],PRE Application SOLNI herbicidal damage (five point scale) [4],PRE Application AMARE herbicidal damage (five point scale) [5],PRE Application IPOHE herbicidal damage (five point scale) [6],POST Application ALOMY herbicidal damage (five point scale) [7],POST Application SETFA herbicidal damage (five point scale) [8],POST Application ECHCG herbicidal damage (five point scale) [9],POST Application SOLNI herbicidal damage (five point scale) [10],POST Application AMARE herbicidal damage (five point scale) [11],POST Application IPOHE herbicidal damage (five point scale) [12],also measured
CCn1ncc(-c2c(Cl)cccc2Cl)c(O)c1=O [Compound 1.011],1 (1=0-19% damage),1 (1=0-19% damage),1 (1=0-19% damage),1 (1=0-19% damage),1 (1=0-19% damage),1 (1=0-19% damage),2 (2=20-39% damage),2 (2=20-39% damage),2 (2=20-39% damage),4 (4=60-79% damage),4 (4=60-79% damage),2 (2=20-39% damage),
Cn1ncc(-c2c(S(C)(=O)=O)ccc(Br)c2Br)c(O)c1=O [Compound 1.161],,,,,,,,,,,,,"herbicidal damage, PRE Application ALOMY [1]: 1 (1=0-19% damage); herbicidal damage, PRE Application SETFA [2]: 1 (1=0-19% damage); herbicidal damage, PRE Application ECHCG [3]: 1 (1=0-19% damage); herbicidal damage, PRE Application SOLNI [4]: 1 (1=0-19% damage); herbicidal damage, PRE Application AMARE [5]: 3 (3=40-59% damage); herbicidal damage, PRE Application IPOHE [6]: 1 (1=0-19% damage); herbicidal damage, POST Application ALOMY [7]: 3 (3=40-59% damage); herbicidal damage, POST Application SETFA [8]: 4 (4=60-79% damage); herbicidal damage, POST Application ECHCG [9]: 4 (4=60-79% damage); herbicidal damage, POST Application SOLNI [10]: 4 (4=60-79% damage); herbicidal damage, POST Application AMARE [11]: 5 (5=80-100% damage); herbicidal damage, POST Application IPOHE [12]: 2 (2=20-39% damage)"
Cn1ncc(-n2ccc(O)c(C#N)c2=O)c(O)c1=O [Compound 1.066],3 (3=40-59% damage),1 (1=0-19% damage),2 (2=20-39% damage),4 (4=60-79% damage),4 (4=60-79% damage),5 (5=80-100% damage),2 (2=20-39% damage),1 (1=0-19% damage),1 (1=0-19% damage),3 (3=40-59% damage),1 (1=0-19% damage),2 (2=20-39% damage),
Cn1ncc(-n2ccc(C(F)(F)F)c(-c3ccc([N+](=O)[O-])cc3)c2=O)c(O)c1=O [Compound 7.009],5 (5=80-100% damage),5 (5=80-100% damage),5 (5=80-100% damage),5 (5=80-100% damage),5 (5=80-100% damage),4 (4=60-79% damage),5 (5=80-100% damage),5 (5=80-100% damage),5 (5=80-100% damage),5 (5=80-100% damage),5 (5=80-100% damage),5 (5=80-100% damage),
CCn1ncc(-c2ccc(C(F)(F)F)cc2S(C)(=O)=O)c(O)c1=O [Compound 2.016],5 (5=80-100% damage),5 (5=80-100% damage),5 (5=80-100% damage),5 (5=80-100% damage),5 (5=80-100% damage),5 (5=80-100% damage),5 (5=80-100% damage),5 (5=80-100% damage),5 (5=80-100% damage),5 (5=80-100% damage),5 (5=80-100% damage),5 (5=80-100% damage),
Cn1ncc(-c2cccn(CC3CC3)c2=O)c(O)c1=O [Compound 9.006],1 (1=0-19% damage),1 (1=0-19% damage),1 (1=0-19% damage),1 (1=0-19% damage),1 (1=0-19% damage),1 (1=0-19% damage),2 (2=20-39% damage),2 (2=20-39% damage),1 (1=0-19% damage),3 (3=40-59% damage),3 (3=40-59% damage),2 (2=20-39% damage),
Cn1ncc(-c2ccccc2[S+](C)[O-])c(O)c1=O (stereo not drawn) [Compound 1.036],3 (3=40-59% damage),2 (2=20-39% damage),2 (2=20-39% damage),1 (1=0-19% damage),3 (3=40-59% damage),1 (1=0-19% damage),5 (5=80-100% damage),5 (5=80-100% damage),5 (5=80-100% damage),5 (5=80-100% damage),5 (5=80-100% damage),5 (5=80-100% damage),
Cn1ncc(-n2ccc(C(F)(F)F)c(-c3ccccc3Cl)c2=O)c(O)c1=O [Compound 1.159],,,,,,,,,,,,,"herbicidal damage, PRE Application ALOMY [1]: 5 (5=80-100% damage); herbicidal damage, PRE Application SETFA [2]: 5 (5=80-100% damage); herbicidal damage, PRE Application ECHCG [3]: 5 (5=80-100% damage); herbicidal damage, PRE Application SOLNI [4]: 5 (5=80-100% damage); herbicidal damage, PRE Application AMARE [5]: 5 (5=80-100% damage); herbicidal damage, PRE Application IPOHE [6]: 1 (1=0-19% damage); herbicidal damage, POST Application ALOMY [7]: 4 (4=60-79% damage); herbicidal damage, POST Application SETFA [8]: 5 (5=80-100% damage); herbicidal damage, POST Application ECHCG [9]: 5 (5=80-100% damage); herbicidal damage, POST Application SOLNI [10]: 5 (5=80-100% damage); herbicidal damage, POST Application AMARE [11]: 5 (5=80-100% damage); herbicidal damage, POST Application IPOHE [12]: 5 (5=80-100% damage)"
Cn1ncc(-c2ccc(SCc3ccccc3)cc2S(C)(=O)=O)c(O)c1=O [Compound 2.035],3 (3=40-59% damage),2 (2=20-39% damage),3 (3=40-59% damage),5 (5=80-100% damage),5 (5=80-100% damage),3 (3=40-59% damage),4 (4=60-79% damage),5 (5=80-100% damage),5 (5=80-100% damage),5 (5=80-100% damage),5 (5=80-100% damage),5 (5=80-100% damage),
Cn1ncc(-c2ccc(C(F)(F)F)n(C)c2=O)c(O)c1=O [Compound 9.010],1 (1=0-19% damage),1 (1=0-19% damage),5 (5=80-100% damage),1 (1=0-19% damage),5 (5=80-100% damage),1 (1=0-19% damage),2 (2=20-39% damage),2 (2=20-39% damage),4 (4=60-79% damage),5 (5=80-100% damage),5 (5=80-100% damage),4 (4=60-79% damage),
Cn1ncc(-n2ccc(C(F)(F)F)c(-c3ccccc3)c2=O)c(O)c1=O [Compound 1.054],5 (5=80-100% damage),5 (5=80-100% damage),5 (5=80-100% damage),5 (5=80-100% damage),5 (5=80-100% damage),3 (3=40-59% damage),5 (5=80-100% damage),5 (5=80-100% damage),5 (5=80-100% damage),5 (5=80-100% damage),5 (5=80-100% damage),4 (4=60-79% damage),
